These results are taken from US20140171510A1, “HO[…] AND/OR CONJUGATES OF AMPHETAMINE AND OTHER […] PROCESSES FOR MAKING AND USING THE SAME” (priority 2011, published 2014).

A short description of data set [1]: Intranasal study in rats, plasma d-amphetamine by ELISA (Example 7). The note with it: for % Tmax: relative to d-amp. (ELISA stands for enzyme-linked immunosorbent assay.)
The nature of data set [2]: Average results of oral studies in rats (Table 3). It is filed as in vivo. The settings on record: for % Tmax: average of oral studies in rats, relative to Lys-Amp.
Data set [3] is described as follows: Single-dose crossover oral PK study of hArg-Amp-2HCl and Lys-Amp in humans (Example 10). The settings on record: for AUC0-24 h of d-amphetamine: fasted, Vyvanse 30 mg (d-amphetamine equivalent dosages); for plasma concentrations of intact prodrug: 25 mg hArg-Amp-2HCl or same molar dose, lower limit of quantitation 1.00 ng/mL.
Data set [4] can be described thus: Oral gavage PK study of hArg-Amp vs Lys-Amp in rats, plasma d-amphetamine by ELISA (Example 6). The note with it: relative to Lys-Amp.
The nature of data set [5]: Oral PK of hArg-Amp-2HCl and Lys-Amp in dogs (Example 9).
Data set [6] in a line: Oral PK of hArg-Amp-2HCl and Lys-Amp in rats (Example 9). The settings on record: for AUC0-24 h of d-amphetamine: equimolar doses (hArg-Amp-2HCl […], Lys-Amp 5.05 mg/kg).
Data set [7] is described as follows: Intravenous study in rats, plasma d-amphetamine by ELISA (Example 8). The note with it: for % Tmax: relative to d-amp; for Tmax: d-amphetamine in plasma, […] equivalent.
Data set [8] can be described thus: pH of the prodrug in deionized water at various concentrations. It is filed as physicochemical. The text has this: In a preferred embodiment, the homoarginine amphetamine prodrug comprises a dihydrochloride salt of homoarginine amphetamine. The pH of this prodrug in deionized water at various concentrations is as follows: […]
Data set [9] in a line: Parenteral (intranasal, intravenous) administration in rats, release of amphetamine (Example 1). The settings on record: parental routes (intranasal, intravenous).
Where [10] appears, read: oral solution, hArg-Amp-2HCl 25 mg.
The mark [11] stands for this setting: oral solution, hArg-Amp-2HCl 25 mg, Vyvanse 30 mg.
[12] abbreviates: equimolar doses (1.5 and 1.8 mg/kg).
[13] abbreviates: oral solution, equimolar doses (4.20 and 5.05 mg/kg).

Turning to “l-lysine-d-amphetamine [Lys-Amp, reference compound]”, the “% Tmax” value in data set [1] was 3600%; in data set [2] it was 100%; in [4] it was 100%; in [7], 100%. Moreover, the “AUC0-24 h of d-amphetamine” value in [3] (setting [10]) worked out at 421.9 ng·h/mL; in data set [5] (equimolar doses (hArg-Amp-2HCl […], Lys-Amp 1.8 mg/kg)) it was 775.0 ng·h/mL; in [6] (oral solution), 596.4 ng·h/mL. Also, the “AUC0-24 h of intact prodrug” value was 19.4 ng·h/mL in data set [3] (setting [11]), 285.8 ng·h/mL in data set [5] (setting [12]) and 74.9 ng·h/mL in [6] (setting [13]). In addition, the Cmax of d-amphetamine was 30.0 ng/mL in data set [3] (setting [11]), 95.4 ng/mL in data set [5] (setting [12]) and 71.5 ng/mL in data set [6] (setting [13]). The “Cmax of intact prodrug” value amounted to 18.1 ng/mL in data set [3] (setting [11]), 305.5 ng/mL in data set [5] (setting [12]) and 90.2 ng/mL in data set [6] (setting [13]). The “Tmax of intact prodrug” value in [3] (setting [11]) stood at 36.6 min.
As to `C[C@@H](Cc1ccccc1)NC(=O)[C@@H](N)CCCCN=C(N)N.Cl.Cl` [hArg-Amp-2HCl, l-homoarginine-d-amphetamine dihydrochloride], the pH stood at 6.15 ± 0.1 in [8] (0.1 mg/mL (0.3 mM) in deionized water), 5.40 ± 0.1 in data set [8] (1.0 mg/mL ([…]) in deionized water), 4.35 ± 0.1 in [8] (10 mg/mL (26.4 mM) in deionized water) and 3.30 ± 0.1 in [8] (100 mg/mL (264.3 mM) in deionized water). The “AUC0-24 h of d-amphetamine” value in [3] (setting [10]) is 282.7 ng·h/mL; in data set [6] (oral solution), 447.2 ng·h/mL. In addition, the “Tmax of d-amphetamine, hArg-Amp-2HCl/Lys-Amp” value in [3] (oral) is given as 110.5%; in data set [6] (oral), 150.0%. Also, the “Tmax of intact prodrug, hArg-Amp-2HCl/Lys-Amp” value in data set [3] (oral) was 0%; in [6] (oral), 100.0%^. Besides, the Cmax of d-amphetamine in data set [3] (setting [11]) was 20.7 ng/mL; in data set [6] (setting [13]), 43.2 ng/mL. For the same compound, the “Tmax of intact prodrug” value worked out at 0 min in [3] (setting [11]) and 15 min in data set [6] (setting [13]). Besides, the “AUC0-24 h of intact prodrug” value in data set [6] (setting [13]) worked out at 1.8 ng·h/mL. In data set [6] (setting [13]), the “Cmax of intact prodrug” value is 3.1 ng/mL.
In the case of `C[C@H](N)Cc1ccccc1` [d-amp, d-amphetamine], the Tmax in data set [1] (d-amphetamine in plasma, […] equivalent, given in minutes) was 5 m; in data set [7], 5 m. The “% Tmax” value in data set [1] and in [7] was 100% in each case.
Consider l-homoarginine-d-amphetamine [hArg-Amp], for which the “% Tmax” value in data set [1] is 600%; in [2], 200-400%; in data set [4], 133%; in data set [7], 100%. Moreover, the Tmax in data set [2] (average of oral studies in rats (n = 30 per compound)) was 120 to 240 min; in data set [7], 5 m. Also, in [3] (setting [11]), the Tmax of d-amphetamine result was “approximately three hours”. The “plasma concentrations of intact prodrug” value in data set [3] (oral, listed as homoarginine amphetamine prodrug) is listed as no more than 1.00 ng/mL; in data set [3] (oral, listed as homoarginine-amphetamine prodrug) it was “below the detectable limit”. Also, the “period over which amphetamine is eliminated after the maximum plasma concentration” value in data set [3] (single oral dose of 25 mg) is listed as “about 45 hours”. For the same compound, the release of amphetamine in data set [9] is given as less than 25%.
